PubChem BioAssay (NCI)
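96-well plates; 48 h exposure; 5 concentrations. Endpoints by linear interpolation between flanking doses. Not reached: highest tested concentration assigned. The concentration for full growth arrest is given as TGI.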

What was measured:
Assay in all cases: NCI anticancer screen, dose series, 48 h
OVCAR-3 ovarian = test system: OVCAR-3 ovarian
786-0 renal = test system: 786-0 renal
SNB-19 CNS = test system: SNB-19 CNS
SK-MEL-5 melanoma = test system: SK-MEL-5 melanoma
SK-MEL-2 melanoma = test system: SK-MEL-2 melanoma
OVCAR-4 ovarian = test system: OVCAR-4 ovarian
SR leukemia = test system: SR leukemia
NCI-H23 lung = test system: NCI-H23 lung
HOP-92 NSCLC = test system: HOP-92 NSCLC
NCI/ADR-RES ovarian = test system: NCI/ADR-RES ovarian
HT29 colon = test system: HT29 colon
RPMI-8226 leukemia = test system: RPMI-8226 leukemia
SF-295 CNS = test system: SF-295 CNS
CAKI-1 renal = test system: CAKI-1 renal
KM12 colon = test system: KM12 colon

SMILES	TGI (OVCAR-3 ovarian) [µM]	TGI (786-0 renal) [µM]	TGI (SNB-19 CNS) [µM]	TGI (SK-MEL-5 melanoma) [µM]	TGI (SK-MEL-2 melanoma) [µM]	TGI (OVCAR-4 ovarian) [µM]	TGI (SR leukemia) [µM]	TGI (NCI-H23 lung) [µM]	TGI (HOP-92 NSCLC) [µM]	TGI (NCI/ADR-RES ovarian) [µM]	TGI (HT29 colon) [µM]	TGI (RPMI-8226 leukemia) [µM]	TGI (SF-295 CNS) [µM]	TGI (CAKI-1 renal) [µM]	TGI (KM12 colon) [µM]
CC(=O)NC1C(OCc2ccccc2)OC(CO)C(O)C1OCC(=O)N1CCCC1C(=O)NC(CCC(=O)NCCCCCNc1c2ccccc2nc2cccc([N+](=O)[O-])c12)C(N)=O (centres undefined)	0.142	0.924	0.493	0.0386	0.0456	3.98	5.01	0.904	0.101	1.09	12.5	0.789	0.724	0.134	0.13
C=CCC1C2CCC(O[Si](C(C)C)(C(C)C)C(C)C)(C(C(=O)OC)C2)C1O (centres undefined)	> 100	> 100	> 100	> 100	> 100	> 100	> 100	> 100	> 100	> 100	> 100	> 100	> 100	> 100	> 100
Nc1cc(N)c(N=Nc2cccc3c(S(=O)(=O)O)cccc23)cc1N=Nc1cc([N+](=O)[O-])ccc1O	> 100	> 100	> 100	47.2	> 100	> 100	72.6	> 100	98.7	93.2	> 100	> 100	> 100	> 100	> 100
N#Cc1c(N2CCOCC2)ncn(-c2ccc(Cl)cc2)c1=O	> 100	> 100	> 100	> 100	> 100		> 100	> 100	> 100	> 100		> 100	> 100	> 100	> 100
C#CC(O)Cc1ccc(OC)c2occc12 (centres undefined)	> 100	> 100	> 100	> 100	> 100	> 100	> 100	> 100	> 100	> 100	> 100	> 100	> 100	> 100	> 100
NCCC1([N+](=O)[O-])CCNCC1	> 100	> 100	> 100	> 100	> 100	> 100	> 100	> 100	> 100	> 100	> 100	> 100	> 100	> 100	> 100
Cc1nc(Nc2nc3ccccc3[nH]2)[nH]c(=O)c1CCO	> 100	> 100	> 100	> 100	> 100	> 100	> 100	> 100	> 100	> 100	> 100		> 100	> 100	> 100
O=c1c(Sc2ncccn2)c(Sc2ncccn2)cnn1CCl	10.8	4.79	32.8	21.2	5.88	6.14	12.4	18.3	7.38	24.4	4.67	> 20.6	30	5.89	29.1
CCc1n[nH]c(=S)n1/N=C\c1ccc(-c2ccccc2[N+](=O)[O-])o1	46.8	> 100	> 100	33.7	> 100	> 100	57.8	> 100	> 100	81.5	> 100	88.1	> 100	> 100	> 100
Cc1ccc(Nc2cn(COCc3ccccc3)c(=O)[nH]c2=O)cc1	> 100	> 100	> 100	> 100		> 100	> 100	> 100	> 100	> 100	> 100	> 100	> 100	> 100	> 100
COc1nc(C)nc2c1ncn2Cc1ccccc1	> 100	> 100	> 100	> 100		> 100	> 100	> 100	53.9	> 100	> 100	> 100	> 100	> 100	> 100
CCCc1cc(-c2ccc(-c3cc(CCC)c(C=O)[nH]3)s2)[nH]c1C=O	> 100	> 100	> 100	> 100	> 59.7	> 100	> 100	> 86.1	> 100	> 100	> 19.9	> 100	> 92.4	> 100	> 100
COc1cc2c(cc1OCCCCN1CCN(CCCCOc3cc4c(cc3OC)C(=O)N3CCC[C@H]3C=N4)CC1)N=C[C@@H]1CCCN1C2=O	0.0636	41.1		0.0476	0.175	12	> 100	0.0914	0.255	16.5	0.656	< 0.0241	0.242	0.182	0.204
O=[N+]([O-])c1ccc2[nH]c(O)c(N=NC(=S)Nc3ccccc3)c2c1	22.6	17.7	27.6	13.5	31.3	29.2	> 100	25.8	21.7	8.62	19	> 100	16.6	15.2	27
CCOP(=O)(OCC)C(=C1C=C(C(C)(C)C)C(=O)C(C(C)(C)C)=C1)P(=O)(OCC)OCC	> 5.55	> 5.51	> 10	> 10	> 10	3.5	> 10	> 10	6.37	> 10	> 10	> 10	> 10	> 6.25	> 10
